# Species on record: Rattus norvegicus
# Assay: DrugMatrix - Regimen: Daily Repeat
# Type: toxicity, organism-based, Sprague-Dawley
# Parameters: regimen Daily Repeat, gender Male, age 6-8 weeks
# Conditions: in vivo, po, 1200 mg/kg, route oral GAVAGE, dose level High, vehicle 100 % WATER; for ABSOLUTE BASOPHIL / ABSOLUTE EOSINOPHIL / ABSOLUTE LYMPHOCYTE / ABSOLUTE MONOCYTE / ABSOLUTE SEGMENTED NEUTROPHIL / BASOPHIL / EOSINOPHIL / ERYTHROCYTE COUNT / HEMATOCRIT / HEMOGLOBIN / LEUKOCYTE COUNT / LYMPHOCYTE / MEAN CORPUSCULAR HEMOGLOBIN / MEAN CORPUSCULAR HEMOGLOBIN CONCENTRATION / MEAN CORPUSCULAR VOLUME / MONOCYTE / NEUTROPHIL / NUCLEATED RED BLOOD CELLS / PLATELET COUNT: tissue Blood; for ALANINE AMINOTRANSFERASE / ALBUMIN / ALKALINE PHOSPHATASE / ASPARTATE AMINOTRANSFERASE / BLOOD UREA NITROGEN / CARBON DIOXIDE / CHLORIDE / CHOLESTEROL / CREATINE PHOSPHOKINASE / CREATININE / GLUCOSE / LACTATE DEHYDROGENASE / LIPASE / PHOSPHORUS / POTASSIUM / SODIUM / TOTAL BILIRUBIN / TOTAL PROTEIN / URIC ACID: tissue Plasma
structure (smiles),measurement,setting,value
CCC1(C)CC(=O)NC1=O (stereo unspecified) [ETHOSUXIMIDE],ABSOLUTE BASOPHIL,"72 h, time 3 day",0 CELLS/uL
same,ABSOLUTE EOSINOPHIL,"72 h, time 3 day",0 CELLS/uL
same,ABSOLUTE LYMPHOCYTE,"72 h, time 3 day",11632.67 CELLS/uL
same,ABSOLUTE MONOCYTE,"72 h, time 3 day",44.67 CELLS/uL
same,ABSOLUTE SEGMENTED NEUTROPHIL,"72 h, time 3 day",722.67 CELLS/uL
same,BASOPHIL,"72 h, time 3 day",0%
same,EOSINOPHIL,"72 h, time 3 day",0%
same,ERYTHROCYTE COUNT,"72 h, time 3 day",5.96 x10E6/uL
same,HEMATOCRIT,"72 h, time 3 day",38.63%
same,HEMOGLOBIN,"72 h, time 3 day",15.43 G/DL
same,LEUKOCYTE COUNT,"72 h, time 3 day",12.4 x10E3/uL
same,LYMPHOCYTE,"72 h, time 3 day",94%
same,MEAN CORPUSCULAR HEMOGLOBIN,"72 h, time 3 day",26 pg
same,MEAN CORPUSCULAR HEMOGLOBIN CONCENTRATION,"72 h, time 3 day",40 G/DL
same,MEAN CORPUSCULAR VOLUME,"72 h, time 3 day",65 fL
same,MONOCYTE,"72 h, time 3 day",0.33%
same,NEUTROPHIL,"72 h, time 3 day",5.67%
same,NUCLEATED RED BLOOD CELLS,"72 h, time 3 day",0 /100WBC
same,PLATELET COUNT,"72 h, time 3 day",1151 x10E3/uL
same,ALANINE AMINOTRANSFERASE,"72 h, time 3 day",70.67 u/L
same,ALBUMIN,"72 h, time 3 day",4.4 G/DL
same,ALKALINE PHOSPHATASE,"72 h, time 3 day",269.67 u/L
same,ASPARTATE AMINOTRANSFERASE,"72 h, time 3 day",95 u/L
same,BLOOD UREA NITROGEN,"72 h, time 3 day",16.33 mg/dL
same,CARBON DIOXIDE,"72 h, time 3 day",28.67 mmol/L
same,CHLORIDE,"72 h, time 3 day",97 MEQ/L
same,CHOLESTEROL,"72 h, time 3 day",100.67 mg/dL
same,CREATINE PHOSPHOKINASE,"72 h, time 3 day",183.67 u/L
same,CREATININE,"72 h, time 3 day",0.14 mg/dL
same,GLUCOSE,"72 h, time 3 day",133 mg/dL
same,LACTATE DEHYDROGENASE,"72 h, time 3 day",123 u/L
same,LIPASE,"72 h, time 3 day",10.67 u/L
same,PHOSPHORUS,"72 h, time 3 day",12.53 mg/dL
same,POTASSIUM,"72 h, time 3 day",7.49 MEQ/L
same,SODIUM,"72 h, time 3 day",140.33 MEQ/L
same,TOTAL BILIRUBIN,"72 h, time 3 day",0.2 mg/dL
same,TOTAL PROTEIN,"72 h, time 3 day",5.97 G/DL
same,URIC ACID,"72 h, time 3 day",1.9 mg/dL
same,ABSOLUTE BASOPHIL,"120 h, time 5 day",0 CELLS/uL
same,ABSOLUTE EOSINOPHIL,"120 h, time 5 day",57.67 CELLS/uL
same,ABSOLUTE LYMPHOCYTE,"120 h, time 5 day",11720.67 CELLS/uL
same,ABSOLUTE MONOCYTE,"120 h, time 5 day",238.33 CELLS/uL
same,ABSOLUTE SEGMENTED NEUTROPHIL,"120 h, time 5 day",2116.67 CELLS/uL
same,BASOPHIL,"120 h, time 5 day",0%
same,EOSINOPHIL,"120 h, time 5 day",0.33%
same,ERYTHROCYTE COUNT,"120 h, time 5 day",6.03 x10E6/uL
same,HEMATOCRIT,"120 h, time 5 day",37.47%
same,HEMOGLOBIN,"120 h, time 5 day",14.97 G/DL
same,LEUKOCYTE COUNT,"120 h, time 5 day",14.13 x10E3/uL
same,LYMPHOCYTE,"120 h, time 5 day",83%
same,MEAN CORPUSCULAR HEMOGLOBIN,"120 h, time 5 day",24.8 pg
same,MEAN CORPUSCULAR HEMOGLOBIN CONCENTRATION,"120 h, time 5 day",39.97 G/DL
same,MEAN CORPUSCULAR VOLUME,"120 h, time 5 day",62.07 fL
same,MONOCYTE,"120 h, time 5 day",1.67%
same,NEUTROPHIL,"120 h, time 5 day",15%
same,NUCLEATED RED BLOOD CELLS,"120 h, time 5 day",0 /100WBC
same,PLATELET COUNT,"120 h, time 5 day",1343 x10E3/uL
same,ALANINE AMINOTRANSFERASE,"120 h, time 5 day",98.67 u/L
same,ALBUMIN,"120 h, time 5 day",4.7 G/DL
same,ALKALINE PHOSPHATASE,"120 h, time 5 day",209.33 u/L
same,ASPARTATE AMINOTRANSFERASE,"120 h, time 5 day",133.67 u/L
same,BLOOD UREA NITROGEN,"120 h, time 5 day",15 mg/dL
same,CARBON DIOXIDE,"120 h, time 5 day",25.67 mmol/L
same,CHLORIDE,"120 h, time 5 day",96.67 MEQ/L
same,CHOLESTEROL,"120 h, time 5 day",108 mg/dL
same,CREATINE PHOSPHOKINASE,"120 h, time 5 day",425.33 u/L
same,CREATININE,"120 h, time 5 day",0.16 mg/dL
same,GLUCOSE,"120 h, time 5 day",121 mg/dL
same,LACTATE DEHYDROGENASE,"120 h, time 5 day",480.67 u/L
same,LIPASE,"120 h, time 5 day",10.67 u/L
same,PHOSPHORUS,"120 h, time 5 day",11.4 mg/dL
same,POTASSIUM,"120 h, time 5 day",6.59 MEQ/L
same,SODIUM,"120 h, time 5 day",141.93 MEQ/L
same,TOTAL BILIRUBIN,"120 h, time 5 day",0.13 mg/dL
same,TOTAL PROTEIN,"120 h, time 5 day",6.37 G/DL
same,URIC ACID,"120 h, time 5 day",1.63 mg/dL

# — ChEMBL document CHEMBL3885881, “DrugMatrix”
